Assay results reported in patent US10464947B2 (Incyte Corporation, priority 2013, dated 2019).

Experiments:
C-myc in KMS.12.BM cells = experiment: KMS.12.BM C-Myc ELISA Assay (Example C1); format: cell-based; settings: Homo sapiens, 2 h
Protocol: KMS.12.BM C-Myc ELISA Assay
KMS.12.BM cell line (human myeloma) was purchased from JCRB (Osaka, Japan) and maintained in RPMI with 10% FBS culture medium. To measure the C-myc inhibitory activity of the compounds, the KMS.12.BM cells are plated in the RPMI culture medium at 75000 cells/well/per 200 μL into a 96-well flat bottom polystyrene tissue culture plate (Corning through VWR, NJ), in the presence or absence of a concentration range of test compounds. After 2 h, cells are pelleted and lysed with Cell Extraction Buffer (BioSource, Carlsbad, Calif.) in the presence of protease inhibitors (Life Technologies, Grand Island, N.Y. and Sigma, St Louis, Mo.). Clarified lyses are tested in a C-myc commercial ELISA (Life Technologies, Grand Island, N.Y.).

KMS.12.BM cells = experiment: KMS.12.BM Cell Viability Assay (Example B1); format: cell-based, human; settings: Homo sapiens, 72 h, 3 days, Cell Titer-GLO, read-out: KMS cellular IC50
Summary of the method: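 KMS.12.BM human myeloma cells, 5000 cells/well in RPMI with 10% FBS, exposed to a compound concentration range for 3 days. Viable cells measured by ATP-based Cell Titer-GLO luminescence after 10 min at room temperature.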

SMILES	IC50 (C-myc in KMS.12.BM cells) [nM]	IC50 (KMS.12.BM cells) [nM]
Cc1noc(C)c1-c1ccc2nc(NC(C)C)n3c2c1OCC3c1ccccc1 (stereo not drawn) [Example 25, 7-(3,5-Dimethylisoxazol-4-yl)-N-isopropyl-4-phenyl-4,5-dihydroimidazo[1,5,4-de][1,4]benzoxazin-2-amine]	< 1000	< 1000
CNc1nc2ccc(-c3c(C)noc3C)c3c2n1C(c1ccccc1)CO3 (stereo not drawn) [Example 26, 7-(3,5-Dimethylisoxazol-4-yl)-N-methyl-4-phenyl-4,5-dihydroimidazo[1,5,4-de][1,4]benzoxazin-2-amine]	< 1000	< 1000
CCNc1nc2ccc(-c3c(C)noc3C)c3c2n1C(c1ccccc1)CO3 (stereo not drawn) [Example 27, 7-(3,5-Dimethylisoxazol-4-yl)-N-ethyl-4-phenyl-4,5-dihydroimidazo[1,5,4-de][1,4]benzoxazin-2-amine]	< 1000	< 1000
Cc1noc(C)c1-c1ccc2nc(N(C)C)n3c2c1OCC3c1ccccc1 (stereo not drawn) [Example 28, 7-(3,5-Dimethylisoxazol-4-yl)-N,N-dimethyl-4-phenyl-4,5-dihydroimidazo[1,5,4-de][1,4]benzoxazin-2-amine]	< 1000	< 1000
Cc1noc(C)c1-c1ccc2nc(NCC(C)O)n3c2c1OCC3c1ccccc1 (stereo not drawn) [Example 32, 1-{[7-(3,5-Dimethylisoxazol-4-yl)-4-phenyl-4,5-dihydroimidazo[1,5,4-de][1,4]benzoxazin-2-yl]amino}propan-2-ol]	< 1000	< 1000
Cc1noc(C)c1-c1ccc2nc(C(=O)N3CCOCC3)n3c2c1OC[C@@H]3c1ccccn1 [Example 94, (4S)-7-(3,5-Dimethylisoxazol-4-yl)-2-(morpholin-4-ylcarbonyl)-4-pyridin-2-yl-4,5-dihydroimidazo[1,5,4-de][1,4]benzoxazine]	< 1000	< 1000
Cc1noc(C)c1-c1ccc2nc(C(N)=O)n3c2c1OC[C@@H]3c1ccccn1 [Example 96, (4S)-7-(3,5-Dimethylisoxazol-4-yl)-4-pyridin-2-yl-4,5-dihydroimidazo[1,5,4-de][1,4]benzoxazine-2-carboxamide]	< 1000	< 1000
CC(=O)N1CCC(c2nc3ccc(-c4c(C)noc4C)c4c3n2[C@@H](c2ccccn2)CO4)CC1 [Example 109, (4S)-2-(1-Acetylpiperidin-4-yl)-7-(3,5-dimethylisoxazol-4-yl)-4-pyridin-2-yl-4,5-dihydroimidazo[1,5,4-de][1,4]benzoxazine]	< 1000	< 1000

Now from value to compound, other results behind:

IC50 (C-myc in KMS.12.BM cells) [nM]	SMILES	IC50 (KMS.12.BM cells) [nM]
< 1000	Cc1noc(C)c1-c1ccc2nc(NCCO)n3c2c1OCC3c1ccccc1 (stereo not drawn) [Example 29, 2-{[7-(3,5-Dimethylisoxazol-4-yl)-4-phenyl-4,5-dihydroimidazo[1,5,4-de][1,4]benzoxazin-2-yl]amino}ethanol]	< 1000
< 1000	Cc1noc(C)c1-c1ccc2nc(N(C)CCO)n3c2c1OCC3c1ccccc1 (stereo not drawn) [Example 34, 2-[[7-(3,5-Dimethylisoxazol-4-yl)-4-phenyl-4,5-dihydroimidazo[1,5,4-de][1,4]benzoxazin-2-yl](methyl)amino]ethanol]	< 1000
< 1000	Cc1noc(C)c1-c1ccc2[nH]c(=O)n3c2c1OCC3c1ccccc1OCC(=O)NCCO (stereo not drawn) [Example 50, 2-{2-[7-(3,5-Dimethylisoxazol-4-yl)-2-oxo-1,2,4,5-tetrahydroimidazo[1,5,4-de][1,4]benzoxazin-4-yl]phenoxy}-N-(2-hydroxyethyl)acetamide]	< 1000
< 1000	CNC(=O)c1nc2ccc(-c3c(C)noc3C)c3c2n1[C@@H](c1ccccn1)CO3 [Example 95, (4S)-7-(3,5-Dimethylisoxazol-4-yl)-N-methyl-4-pyridin-2-yl-4,5-dihydroimidazo[1,5,4-de][1,4]benzoxazine-2-carboxamide]	< 1000
